Values after ≈ are worked out from the molar mass of the structure shown. Active and inactive are the calls of the source. The calls are words filed in the database; no cut-off is given here.
Experiments:
Pseudomonas aeruginosa = assay: Antimicrobial activity against Pseudomonas aeruginosa IFO 12689 at 200 ug/mL after 24 hrs by paper disk method; format: functional, organism-based
Bacillus subtilis = assay: Antimicrobial activity against Bacillus subtilis PCI 219 IFO 3513 after 24 hrs by agar dilution streak method; format: functional; conditions: PCI 219 IFO 3513, 24 h
Saccharomyces = assay: Antimicrobial activity against Saccharomyces sake IFO 0305 after 7 days by agar dilution streak method; format: functional; conditions: IFO 0305, 168 h
Cyberlindnera jadinii = assay: Antimicrobial activity against Candida utilis […] at 200 ug/mL after 7 days by paper disk method; format: functional, organism-based
Serratia marcescens = assay: Antimicrobial activity against Serratia marcescens IFO 12648 at 200 ug/mL after 24 hrs by paper disk method; format: functional, organism-based
Candida tropicalis = assay: Antimicrobial activity against Candida tropicalis IFO 0006 at 200 ug/mL after 7 days by paper disk method; format: functional, organism-based
Trichophyton rubrum = assay: Antimicrobial activity against Trichophyton rubrum IFO 5808 after 7 days by agar dilution streak method; format: functional; conditions: IFO 5808, 168 h
Kocuria rosea = assay: Antimicrobial activity against Micrococcus roseus IFO 3764 after 24 hrs by agar dilution streak method; format: functional; conditions: IFO 3764, 24 h
Staphylococcus aureus = assay: Antimicrobial activity against Staphylococcus aureus 209P IFO 12732 after 24 hrs by agar dilution streak method; format: functional; conditions: 209P IFO 12732, 24 h
[1] = system: Trichophyton mentagrophytes; assay: Fungistatic activity against Trichophyton mentagrophytes IFO 5809 at 100 ug/mL after 7 days by liquid dilution method; format: functional, organism-based
Micrococcus luteus = assay: Antimicrobial activity against Micrococcus luteus IFO 12708 after 24 hrs by agar dilution streak method; format: functional; conditions: IFO 12708, 24 h
Epidermophyton floccosum = assay: Antimicrobial activity against Epidermophyton floccosum IFO 9045 after 7 days by agar dilution streak method; format: functional; conditions: IFO 9045, 168 h
Nannizzia gypsea = assay: Antimicrobial activity against Microsporum gypseum IFO 8307 after 7 days by agar dilution streak method; format: functional; conditions: IFO 8307, 168 h
Pichia norvegensis = assay: Antimicrobial activity against Candida mycoderma IFO 0162 at 200 ug/mL after 7 days by paper disk method; format: functional, organism-based
[2] = system: Meyerozyma guilliermondii; assay: Antimicrobial activity against Candida guilliermondii IFO 0454 at 200 ug/mL after 7 days by paper disk method; format: functional, organism-based
Candida albicans = assay: Antimicrobial activity against Candida albicans IFO 0197 at 200 ug/mL after 7 days by paper disk method; format: functional, organism-based
Escherichia coli = assay: Antimicrobial activity against Escherichia coli NIHJ IFO 12734 at 200 ug/mL after 24 hrs by paper disk method; format: functional, organism-based
[3] = system: Trichophyton mentagrophytes; assay: Antimicrobial activity against Trichophyton mentagrophytes IFO 5809 after 7 days by agar dilution streak method; format: functional; conditions: IFO 5809, 168 h
[4] = system: Trichophyton tonsurans var. sulfureum; assay: Antimicrobial activity against Trichophyton tonsurans var. sulfureum IFO 5945 after 7 days by agar dilution streak method; format: functional; conditions: IFO 5945, 168 h

Row | Compound | Activity (Pseudomonas aeruginosa) | MIC (Bacillus subtilis) [µg/mL] | MIC (Saccharomyces) [µg/mL] | Activity (Cyberlindnera jadinii) | Activity (Serratia marcescens) | Activity (Candida tropicalis) | MIC (Trichophyton rubrum) [µg/mL] | MIC (Kocuria rosea) [µg/mL] | MIC (Staphylococcus aureus) [µg/mL] | Activity [1] | MIC (Micrococcus luteus) [µg/mL] | MIC (Epidermophyton floccosum) [µg/mL] | MIC (Nannizzia gypsea) [µg/mL] | Activity (Pichia norvegensis) | Activity [2] | Activity (Candida albicans) | Activity (Escherichia coli) | MIC [3] [µg/mL] | MIC [4] [µg/mL]
1 | CC(C)=CCCC1=CC(=O)c2c(O)ccc(O)c2C1=O [DEOXYSHIKONIN] | inactive | 200 (≈ 734 µM) | 6.2 (≈ 22.8 µM) | inactive | inactive | inactive | 25 (≈ 91.8 µM) | 100 (≈ 367 µM) | 200 (≈ 734 µM) | inactive | 50 (≈ 184 µM) | 6.2 (≈ 22.8 µM) | 6.2 (≈ 22.8 µM) | inactive | inactive | inactive | inactive | 12.5 (≈ 45.9 µM) | 12.5 (≈ 45.9 µM)
2 | COC1=CC(=O)C[C@@H](C)[C@]12Oc1c(Cl)c(OC)cc(OC)c1C2=O [GRISEOFULVIN] |  |  |  |  |  |  | 3.1 (≈ 8.79 µM) |  |  |  |  | 1.5 (≈ 4.25 µM) | 1.5 (≈ 4.25 µM) |  |  |  |  | 3.1 (≈ 8.79 µM) | 3.1 (≈ 8.79 µM)
3 | CC(C)=CC[C@@H](O)C1=CC(=O)c2c(O)ccc(O)c2C1=O [SHIKONIN] | inactive | > 200 | 3.1 (≈ 10.8 µM) | inactive | inactive | inactive | 25 (≈ 86.7 µM) | 200 (≈ 694 µM) | > 200 |  | 100 (≈ 347 µM) | 6.2 (≈ 21.5 µM) | 12.5 (≈ 43.4 µM) | inactive | inactive | inactive | inactive | 25 (≈ 86.7 µM) | 25 (≈ 86.7 µM)
4 | O=C(N[C@H](CO)[C@H](O)c1ccc([N+](=O)[O-])cc1)C(Cl)Cl [CHLORAMPHENICOL] |  | 6.2 (≈ 19.2 µM) | > 200 |  |  |  |  | 25 (≈ 77.4 µM) | 12.5 (≈ 38.7 µM) |  | 6.2 (≈ 19.2 µM) |  |  |  |  |  |  |  | 
